Laboratory results from ChEMBL document CHEMBL3352489, “6-Hydroxyquinolinium salts differing in the length of alkyl side-chain: synthesis and antimicrobial activity” (Bioorg Med Chem Lett, 2014).

Tests used:
[1] = system: Candida tropicalis; assay: microbe, parasite or virus in culture; format: functional; conditions: Candida tropicalis, 156, 24 h
Description: Antifungal activity against Candida tropicalis 156 after 24 hrs by modified standard CSLI M27-A2 method

[2] = system: Aspergillus fumigatus; assay: microbe, parasite or virus in culture; format: functional; conditions: Aspergillus fumigatus, 231, 24 h
Description: Antifungal activity against Aspergillus fumigatus 231 after 24 hrs by modified standard CSLI M27-A2 method

[3] = system: Enterococcus sp.; assay: microbe, parasite or virus in culture; format: functional; conditions: J 14365/08, 24 h
Description: Antibacterial activity against Enterococcus sp. J 14365/08 after 24 hrs by microdilution broth method

[4] = system: Lichtheimia corymbifera; assay: microbe, parasite or virus in culture; format: functional; conditions: Lichtheimia corymbifera, 272, 48 h
Description: Antifungal activity against Absidia corymbifera 272 after 48 hrs by modified standard CSLI M27-A2 method

[5] = system: Staphylococcus aureus; assay: Bactericidal activity against Staphylococcus aureus CCM 4516/08 after 48 hrs by microdilution broth method; format: functional; conditions: CCM 4516/08, 48 h, read-out: MBC>99.9
[6] = system: Candida tropicalis; assay: Fungicidal activity against Candida tropicalis 156 after 48 hrs by modified standard CSLI M27-A2 method; format: functional; conditions: Candida tropicalis, 156, 48 h
[7] = system: Lichtheimia corymbifera; assay: microbe, parasite or virus in culture; format: functional; conditions: Lichtheimia corymbifera, 272, 24 h
Description: Antifungal activity against Absidia corymbifera 272 after 24 hrs by modified standard CSLI M27-A2 method

[8] = system: Staphylococcus aureus; assay: Bactericidal activity against Staphylococcus aureus H 5996/08 after 48 hrs by microdilution broth method; format: functional; conditions: H 5996/08, 48 h, read-out: MBC>99.9
[9] = system: Trichophyton mentagrophytes; assay: microbe, parasite or virus in culture; format: functional; conditions: Trichophyton mentagrophytes, 445, 120 h
Description: Antifungal activity against Trichophyton mentagrophytes 445 after 120 hrs by modified standard CSLI M27-A2 method

[10] = system: Pichia kudriavzevii; assay: Antifungal activity against Candida krusei E28 after 48 hrs by modified standard CSLI M27-A2 method; format: functional; conditions: E28, 48 h
[11] = system: Lichtheimia corymbifera; assay: Fungicidal activity against Absidia corymbifera 272 after 48 hrs by modified standard CSLI M27-A2 method; format: functional; conditions: Lichtheimia corymbifera, 272, 48 h
[12] = system: Nakaseomyces glabratus; assay: Fungicidal activity against Candida glabrata 20/I after 48 hrs by modified standard CSLI M27-A2 method; format: functional
[13] = system: Trichosporon asahii; assay: microbe, parasite or virus in culture; format: functional; conditions: Trichosporon asahii, 1188, 24 h
Description: Antifungal activity against Trichosporon asahii 1188 after 24 hrs by modified standard CSLI M27-A2 method

[14] = Cytotoxicity against CHOK1 cells after 24 hrs by MTT assay; format: ADME, cell-based; conditions: Cricetulus griseus, CHO-K1, 24 h
[15] = system: Staphylococcus aureus; assay: microbe, parasite or virus in culture; format: functional; conditions: CCM 4516/08, 24 h
Description: Antibacterial activity against Staphylococcus aureus CCM 4516/08 after 24 hrs by microdilution broth method

[16] = system: Pseudomonas aeruginosa; assay: microbe, parasite or virus in culture; format: functional; conditions: CCM 1961, 120 h
Description: Antibacterial activity against Pseudomonas aeruginosa CCM 1961 after 120 hrs by microdilution broth method

[17] = system: Klebsiella pneumoniae; assay: microbe, parasite or virus in culture; format: functional; conditions: D 11750/08, 48 h
Description: Antibacterial activity against Klebsiella pneumoniae D 11750/08 after 48 hrs by microdilution broth method

[18] = system: Trichophyton mentagrophytes; assay: microbe, parasite or virus in culture; format: functional; conditions: Trichophyton mentagrophytes, 445, 72 h
Description: Antifungal activity against Trichophyton mentagrophytes 445 after 72 hrs by modified standard CSLI M27-A2 method

[19] = system: Escherichia coli; assay: Bactericidal activity against Escherichia coli CCM 4517 after 48 hrs by microdilution broth method; format: functional; conditions: CCM 4517, 48 h, read-out: MBC>99.9
[20] = system: Candida albicans; assay: microbe, parasite or virus in culture; format: functional; conditions: ATCC 44859, 24 h
Description: Antifungal activity against Candida albicans ATCC 44859 after 24 hrs by modified standard CSLI M27-A2 method

[21] = system: Enterococcus sp.; assay: microbe, parasite or virus in culture; format: functional; conditions: J 14365/08, 48 h
Description: Antibacterial activity against Enterococcus sp. J 14365/08 after 48 hrs by microdilution broth method

[22] = system: Nakaseomyces glabratus; assay: Antifungal activity against Candida glabrata 20/I after 24 hrs by modified standard CSLI M27-A2 method; format: functional
[23] = system: Escherichia coli; assay: microbe, parasite or virus in culture; format: functional; conditions: CCM 4517, 24 h
Description: Antibacterial activity against Escherichia coli CCM 4517 after 24 hrs by microdilution broth method

[24] = system: Klebsiella pneumoniae; assay: Bactericidal activity against Klebsiella pneumoniae J 14368/08 after 48 hrs by microdilution broth method; format: functional; conditions: J 14368/08, 48 h, read-out: MBC>99.9
[25] = system: Trichosporon asahii; assay: microbe, parasite or virus in culture; format: functional; conditions: Trichosporon asahii, 1188, 48 h
Description: Antifungal activity against Trichosporon asahii 1188 after 48 hrs by modified standard CSLI M27-A2 method

[26] = system: Pseudomonas aeruginosa; assay: microbe, parasite or virus in culture; format: functional; conditions: CCM 1961, 72 h
Description: Antibacterial activity against Pseudomonas aeruginosa CCM 1961 after 72 hrs by microdilution broth method

[27] = system: Staphylococcus epidermidis; assay: microbe, parasite or virus in culture; format: functional; conditions: H 6966/08, 24 h
Description: Antibacterial activity against Staphylococcus epidermidis H 6966/08 after 24 hrs by microdilution broth method

[28] = system: Aspergillus fumigatus; assay: microbe, parasite or virus in culture; format: functional; conditions: Aspergillus fumigatus, 231, 48 h
Description: Antifungal activity against Aspergillus fumigatus 231 after 48 hrs by modified standard CSLI M27-A2 method

[29] = system: Klebsiella pneumoniae; assay: microbe, parasite or virus in culture; format: functional; conditions: J 14368/08, 48 h
Description: Antibacterial activity against Klebsiella pneumoniae J 14368/08 after 48 hrs by microdilution broth method

[30] = system: Klebsiella pneumoniae; assay: Bactericidal activity against Klebsiella pneumoniae D 11750/08 after 24 hrs by microdilution broth method; format: functional; conditions: D 11750/08, 24 h, read-out: MBC>99.9
[31] = system: Trichosporon asahii; assay: Fungicidal activity against Trichosporon asahii 1188 after 48 hrs by modified standard CSLI M27-A2 method; format: functional; conditions: Trichosporon asahii, 1188, 48 h
[32] = system: Escherichia coli; assay: microbe, parasite or virus in culture; format: functional; conditions: CCM 4517, 48 h
Description: Antibacterial activity against Escherichia coli CCM 4517 after 48 hrs by microdilution broth method

[33] = system: Candida albicans; assay: microbe, parasite or virus in culture; format: functional; conditions: ATCC 44859, 48 h
Description: Antifungal activity against Candida albicans ATCC 44859 after 48 hrs by modified standard CSLI M27-A2 method

[34] = system: Pichia kudriavzevii; assay: Fungicidal activity against Candida krusei E28 after 48 hrs by modified standard CSLI M27-A2 method; format: functional; conditions: E28, 48 h
[35] = system: Aspergillus fumigatus; assay: Fungicidal activity against Aspergillus fumigatus 231 after 48 hrs by modified standard CSLI M27-A2 method; format: functional; conditions: Aspergillus fumigatus, 231, 48 h
[36] = system: Candida albicans; assay: Fungicidal activity against Candida albicans ATCC 44859 after 48 hrs by modified standard CSLI M27-A2 method; format: functional; conditions: ATCC 44859, 48 h
[37] = system: Staphylococcus epidermidis; assay: Bactericidal activity against Staphylococcus epidermidis H 6966/08 after 48 hrs by microdilution broth method; format: functional; conditions: H 6966/08, 48 h, read-out: MBC>99.9
[38] = system: Staphylococcus aureus; assay: microbe, parasite or virus in culture; format: functional; conditions: H 5996/08, 24 h
Description: Antibacterial activity against Staphylococcus aureus H 5996/08 after 24 hrs by microdilution broth method

[39] = system: Candida tropicalis; assay: microbe, parasite or virus in culture; format: functional; conditions: Candida tropicalis, 156, 48 h
Description: Antifungal activity against Candida tropicalis 156 after 48 hrs by modified standard CSLI M27-A2 method

[40] = system: Nakaseomyces glabratus; assay: Antifungal activity against Candida glabrata 20/I after 48 hrs by modified standard CSLI M27-A2 method; format: functional
[41] = system: Pichia kudriavzevii; assay: Antifungal activity against Candida krusei E28 after 24 hrs by modified standard CSLI M27-A2 method; format: functional; conditions: E28, 24 h
[42] = system: Staphylococcus aureus; assay: microbe, parasite or virus in culture; format: functional; conditions: H 5996/08, 48 h
Description: Antibacterial activity against Staphylococcus aureus H 5996/08 after 48 hrs by microdilution broth method

[43] = system: Pseudomonas aeruginosa; assay: Bactericidal activity against Pseudomonas aeruginosa CCM 1961 after 120 hrs by microdilution broth method; format: functional; conditions: CCM 1961, 120 h, read-out: MBC>99.9
[44] = system: Staphylococcus epidermidis; assay: microbe, parasite or virus in culture; format: functional; conditions: H 6966/08, 48 h
Description: Antibacterial activity against Staphylococcus epidermidis H 6966/08 after 48 hrs by microdilution broth method

[45] = system: Klebsiella pneumoniae; assay: microbe, parasite or virus in culture; format: functional; conditions: D 11750/08, 24 h
Description: Antibacterial activity against Klebsiella pneumoniae D 11750/08 after 24 hrs by microdilution broth method

[46] = system: Trichophyton mentagrophytes; assay: Fungicidal activity against Trichophyton mentagrophytes 445 after 120 hrs by modified standard CSLI M27-A2 method; format: functional; conditions: Trichophyton mentagrophytes, 445, 120 h
[47] = system: Enterococcus sp.; assay: Bactericidal activity against Enterococcus sp. J 14365/08 after 48 hrs by microdilution broth method; format: functional; conditions: J 14365/08, 48 h, read-out: MBC>99.9
[48] = system: Staphylococcus aureus; assay: microbe, parasite or virus in culture; format: functional; conditions: CCM 4516/08, 48 h
Description: Antibacterial activity against Staphylococcus aureus CCM 4516/08 after 48 hrs by microdilution broth method

[49] = system: Klebsiella pneumoniae; assay: microbe, parasite or virus in culture; format: functional; conditions: J 14368/08, 24 h
Description: Antibacterial activity against Klebsiella pneumoniae J 14368/08 after 24 hrs by microdilution broth method

CCCCCCCCCCCC[N+](C)(C)Cc1ccccc1
MIC [1]: 0.49 µM | MIC [2]: 0.98 µM | MIC95 [3]: 0.49 µM | MIC [4]: 7.81 µM | MBC [5]: 1.95 µM | MFC [6]: 0.98 µM | MIC [7]: 7.81 µM | MBC [8]: 0.98 µM | MIC [9]: 0.98 µM | MIC [10]: 0.49 µM | MFC [11]: 7.81 µM | MFC [12]: 0.49 µM | MIC [13]: 0.49 µM | IC50 [14]: 29 µM | MIC95 [15]: 0.49 µM | MIC95 [16]: 3.91 µM | MIC95 [17]: 0.49 µM | MIC [18]: 0.98 µM | MBC [19]: 1.95 µM | MIC [20]: 0.49 µM | MIC95 [21]: 0.98 µM | MIC [22]: 0.49 µM | MIC95 [23]: 0.49 µM | MBC [24]: 0.98 µM | MIC [25]: 1.95 µM | MIC95 [26]: 3.91 µM | MIC95 [27]: 0.49 µM | MIC [28]: 3.91 µM | MIC95 [29]: 0.98 µM | MBC [30]: 0.49 µM | MFC [31]: 1.95 µM | MIC95 [32]: 1.95 µM | MIC [33]: 0.49 µM | MFC [34]: 0.49 µM | MFC [35]: 3.91 µM | MFC [36]: 0.98 µM | MBC [37]: 0.49 µM | MIC95 [38]: 0.49 µM | MIC [39]: 0.49 µM | MIC [40]: 0.49 µM | MIC [41]: 0.49 µM | MIC95 [42]: 0.49 µM | MBC [43]: 7.81 µM | MIC95 [44]: 0.49 µM | MIC95 [45]: 0.49 µM | MFC [46]: 1.95 µM | MBC [47]: 0.98 µM | MIC95 [48]: 1.95 µM | MIC95 [49]: 0.98 µM

CCCCCCCCCCCCCCCC[n+]1ccccc1 [CETYLPYRIDINIUM BROMIDE]
MBC [5]: 3.91 µM | MFC [6]: 3.9 µM | MBC [8]: 3.91 µM | MFC [11]: 62.5 µM | MFC [12]: 3.91 µM | MBC [19]: 7.81 µM | MBC [24]: 7.81 µM | MBC [30]: 15.6 µM | MFC [31]: 7.81 µM | MFC [34]: 1.95 µM | MFC [35]: 15.6 µM | MFC [36]: 15.6 µM | MBC [37]: 3.91 µM | MBC [43]: 125 µM | MFC [46]: 7.81 µM | MBC [47]: 7.81 µM
